Entries after “also recorded” stand apart in the source; their conditions may differ.
Legend:
VEGF = assay: Multiplex ELISA of HMEC media: VEGF; assay type: cell-based, human; settings: compound-treated HMECs, 16 hours
Description: (§1) Dermal-derived Human Microvascular Endothelial Cells (HMEC) were maintained at 37° C./5% CO2 in MCDB-131 medium (Gibco/cat: 10372) supplemented with 10% FCS, L-Glutamine (Gibco/cat: 25030-032), 1 μl/ml Hydrocortisone (Sigma/cat: H0396), 10 ng/ml EGF (BD Biosciences 354001) and 1% Pen-Strep (Gibco/cat: 151040-148). The wells of a μ-slide angiogenesis plate (IBIDI Cat no: 81506) were coated with a layer of matrigel matrix (BD 356234) which was left to polymerize for 45 minutes at 37° C. HMECs were grown to 80% confluence, washed with DPBS (Invitrogen) and trypsinised using 2 ml TrypLE™ Express (1×) (Invitrogen). Cells were centrifuged following flask detachment at 1200 rpm for 4 minutes. The cell pellet was resuspended in 3 ml full media and a cell count was performed using a haemocytometer. 7.5×10^3 cells were pipetted into each matrigel coated well of the μ-slide angiogenesis plate and treated with either 0.1% DMSO or 1, 3.16 or 10 μM compound 4 or compound 18. The slide was kept at 37° C./5% CO2 during cell tube formation. After 16 hours, 50 μl of media was removed from each of the Ibidi wells and 25 μl of the media was run in each well of a Meso Scale Discovery (MD, USA) custom multiplex ELISA containing the following analytes: Ang-1, Ang-2, VEGF, bFGF, PAI-1, sICAM and sVCAM. The ELISA was run as per manufacturer's instructions.

PAI-1 = assay: Multiplex ELISA of HMEC media: PAI-1; assay type: cell-based, human; settings: compound-treated HMECs, 16 hours
Description: as §1

human HT29-Luc2 cells = assay: Clonogenic assay of cell viability in HT29-Luc2; assay type: cell-based; settings: 10 μM, 24-96 hours
Description: HT29-Luc2 CRC cells were maintained using McCoy's 5A (Gibco 36600-088) medium supplemented with 10% FBS (Gibco 10270-106) at 37° C./5% CO2. Cells were washed in DPBS and trypsinised using 2 ml TrypLE™ Express (1×) (Invitrogen). Cells were centrifuged following detachment at 1200 rpm for 4 minutes. The cell pellet was resuspended in full media and a cell count was performed using a haemocytometer. 1.5×10^3 cells were seeded per well of a 6 well plate and left to adhere for 24 hours. Cells were then treated with 10 μM of compound 4 or 18 for 24 hours. The drugs were then removed and cells were allowed to grow in fresh media for 10 days in total, clones were then fixed using 4% paraformaldehyde and stained by incubating with 0.5% crystal violet solution (Pro-Lab diagnostics PL.7000) at RT for 2 hours. Clones counting was performed using the ColCount™ system (Oxford Optronix).

[1] = system: human retinal (ARPE-19) cells; assay: MTT cell viability assay in ARPE-19; assay type: cell-based; settings: 5, 10, 25, 50, 75 or 90 μM, 96 hours
Description: A 3-(4,5-dimethylthiozol-2-yl)-2,5-diphenyltetrazolium bromide (MTT) dye reduction assay was carried out to determine the cytotoxicity of each compound on either human microvascular endothelial cells (HMECs) or human retinal pigmented epithelium cells (ARPE-19). Cells were maintained in a 95% air and 5% CO2 atmosphere at 37° C. in Dulbecco modified Eagle medium (DMEM, Sigma Aldrich) with 10% fetal bovine serum, 2 mM Gibco® L-glutamine and 100 units/ml penicillin, 1 mg/ml streptomycin (Invitrogen) supplementation. On day 1, cells were trypsinized (Trypsin-EDTA 1×) and seeded 1.4×10^4 cells per well of a 96 well plate and incubated overnight. On day 2, cells were serum staved in DMEM with L-glutamine and penicillin-streptomycin supplementation for 24 h. On day 3, cells were drug treated for 24 h (HMECs) or 96 h (ARPE-19 cells) with 0.1% DMSO or 10 μM to 90 μM of each compound 4, 8, 15, 18 or 20, with 4 replicate wells of each compound. After 24-96 h, cells were incubated with […] 5 mg/ml MTT labelling Reagent (Roche) for 2 h. Subsequently, when purple formazan crystals formed cells were incubated with 1× solubilisation solution (Roche) for 4 h and absorbance read at 570 nm using a microplate reader.

sICAM-1 = assay: Multiplex ELISA of HMEC media: sICAM-1; assay type: cell-based, human; settings: compound-treated HMECs, 16 hours
Description: as §1

[2] = system: human microvascular endothelial cells (HMECs); assay: In vitro tubule formation in human microvascular endothelial cells; assay type: cell-based; settings: 1, 3.16 and 10 μM, 16 hours, HMEC on matrigel
Description: as §1, with “the cells were imaged by phase contrast microscopy using the Zeiss Axiovert 200 M microscope. Total tubule length” for “50 μl of media”, “quantified using Zeiss Axiovision image analysis software. Calcein AM stain (C3099 Invitrogen) was prepared at 2 μg/ml final concentration” for “removed from each of the Ibidi wells”, “incubated with HMEC cells” for “25 μl of the media was run in each well of a Meso Scale Discovery (MD, USA) custom multiplex ELISA containing the”, “tubule formation for 30 minutes at 37° C. […]” for “analytes: Ang-1, Ang-2, VEGF, bFGF, PAI-1, sICAM and sVCAM. The ELISA was run as per manufacturer's instructions.”

Row | SMILES | expression of VEGF (VEGF) | expression of PAI-1 (PAI-1; hydrochloride) | cell viability in a clonogenic assay (human HT29-Luc2 cells) | cell viability (MTT assay) [1] | expression of sICAM-1 (sICAM-1) | tubule formation (total tubule length) ([2]; hydrochloride) | expression of PAI-1 (PAI-1) | tubule formation (total tubule length) [2]
1 | Cl.Oc1ccccc1/C=C/c1cnccn1 [Compound 4, (E)-2-[2-(Pyrazin-2-yl)vinyl]phenol hydrochloride] | not significantly different to control-treated HMECs | significantly reduce; also recorded: reduce expression of Ang-2 and PAI-1 in human endothelial microvascular cells in a statistically significant manner | does not affect cell viability | does not affect cell viability | not significantly different to control-treated HMECs | significantly reduce tubule formation; also recorded: inhibit in vitro tubule formation in a statistically significant manner |  | 
2 | Oc1ccccc1C#Cc1cnccn1 [Compound 18, 2-[2-(Pyrazin-2-yl)ethynyl]phenol] | not significantly different to control-treated HMECs |  | does not affect cell viability | does not affect cell viability | not significantly different to control-treated HMECs |  | significantly reduce; also recorded: reduce expression of Ang-2 and PAI-1 in human endothelial microvascular cells in a statistically significant manner | significantly reduce tubule formation; also recorded: inhibit in vitro tubule formation in a statistically significant manner
